{"source": "patent US20020137929A1", "about": "“1 - (3-heterocyclylphenyl) isothiourea, -isourea, -guanidine and -amidine herbicidal agents” (Intellectual Property Department, BASF Aktiengesellschaft, priority 1998, published 2002)", "key": {"[1]": {"tested_on": "CHEAL (Lambsquarters, Common)", "test": "Preemergence herbicidal evaluation", "type": "in vivo, Chenopodium album", "conditions": "rated 4-5 weeks after treatment; for CHEAL rating: preemergence, 0-9 scale", "procedure,_shortened": "(§1)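 In this greenhouse assay, monocot and dicot seeds are planted in soil and treated prior to emergence with an aqueous acetone spray (about 0.0156-0.500 kg/ha). Plants are assessed visually against control on a 0-9 scale after 4-5 weeks.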"}, "[2]": {"tested_on": "ORYSAT (Rice, Tebonnet)", "test": "Rice tolerance to post-transplant applications, flooded paddy conditions (Table IV)", "type": "in vivo, Oryza sativa, (L.) Tebonnet", "procedure,_shortened": "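Post-transplant paddy test in greenhouse: a.i. about 0.0313 to 0.500 kg/ha applied into the flood water. Plants are rated 0-9 for overall appearance relative to control three to four weeks on.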"}, "[3]": {"tested_on": "ORYSAT (Rice, Tebonnet)", "test": "Rice tolerance to post-transplant applications, flooded paddy conditions (Table III)", "type": "in vivo, Oryza sativa, (L.) Tebonnet", "conditions": "for ORYSAT herbicidal effect rating (rice tolerance): post-transplant rice, flooded paddy, rated 3-4 weeks after treatment", "procedure,_shortened": "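Two ten-day-old Tebonnet seedlings transplanted into flooded silt loam (water 1.5 to 3 cm above soil); three days later the water surface was treated with compound in aqueous/acetone 50/50 at about 0.0313 to 0.500 kg/ha. Visual 0-9 injury rating versus control after three to four weeks in greenhouse.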"}, "[4]": {"tested_on": "CYPSE (Flatsedge)", "test": "Preemergence weed control under flooded paddy conditions", "type": "in vivo, Cyperus serotinus", "conditions": "rated 3-4 weeks after treatment", "procedure,_shortened": "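First, seeds or propagules go into the top 0.5 cm of silt loam; next, water is held 1.5 to 3 cm over the soil; then compound (50/50 acetone/water) is pipetted into it at about 0.0313 to 0.500 kg/ha; finally plants are rated visually 0-9 after three to four weeks.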"}, "[5]": {"tested_on": "ECHORC (Watergrass (Calif.))", "test": "Preemergence weed control under flooded paddy conditions", "type": "in vivo, Echinochloa oryzoides", "conditions": "rated 3-4 weeks after treatment", "procedure,_shortened": "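Flooded-pot preemergence screen with silt loam and seeds in the upper 0.5 cm. Dose about 0.0313 to 0.500 kg/ha, delivered into flood water; visual 0-9 score after 3 to 4 weeks.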"}, "[6]": {"tested_on": "MOOVA (Monochoria)", "test": "Postemergence weed control under flooded paddy conditions", "type": "in vivo, Monochoria vaginalis", "conditions": "postemergence weeds", "procedure,_shortened": "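Weeds 3 to 5 cm tall and rice seedlings at the 1.5 to 2.5 leaf stage were flooded, with water held 1.5 to 3 cm above the soil. Compounds in 50/50 v/v aqueous/acetone went into the flood water at about 0.0313 to 0.500 kg/ha. Visual 0-9 ratings versus control were made 3 to 4 weeks later.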"}, "[7]": {"tested_on": "ECHCG (Barnyardgrass)", "test": "Postemergence herbicidal evaluation", "type": "in vivo, Echinochloa crus-galli", "conditions": "for ECHCG herbicidal rating: postemergence", "procedure,_shortened": "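Each compound, dispersed in an acetone/water mix (50/50) carrying 0.5% TWEEN 20, is nozzle-sprayed at 40 psi on approximately two-week-old seedlings at about 0.0156–0.500 kg/ha. Plants are assessed 4–5 weeks afterward on a 0–9 scale relative to control; duplicate tests are averaged.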"}, "[8]": {"tested_on": "ORYSAT (Rice, Tebonnet)", "test": "Preemergence herbicidal evaluation", "type": "in vivo, Oryza sativa, (L.) Tebonnet", "conditions": "rated 4-5 weeks after treatment; for ORYSAT rating: preemergence, 0-9 scale", "procedure,_shortened": "as §1"}}}
{"molecule": "C=CCN1C(=O)C(CC(=O)OCCF)SC1=Nc1cc(-n2c(=O)cc(C(F)(F)F)n(C)c2=O)c(F)cc1Cl", "note": "(stereo not drawn) [Compound 86, 2-Fluoroethyl 3-allyl-2-{{2-chloro-5-[3,6-dihydro-3-methyl-2,6-dioxo-4-(trifluoromethyl)-1(2H)-pyrimidinyl]-4-fluorophenyl}imino}-4-oxo-5-thiazolidineacetate]", "values": [{"measurement": "CHEAL rating", "setting": "[1]; 0.0156 kg/ha", "value": 4.0}, {"measurement": "CHEAL rating", "setting": "[1]; 0.0313 kg/ha", "value": 4.0}, {"measurement": "CHEAL rating", "setting": "[1]; 0.0625 kg/ha", "value": 9.0}, {"measurement": "CHEAL rating", "setting": "[1]; 0.1250 kg/ha", "value": 9.0}, {"measurement": "CHEAL rating", "setting": "[1]; 0.2500 kg/ha", "value": 9.0}, {"measurement": "CHEAL rating", "setting": "[1]; 0.5000 kg/ha", "value": 9.0}, {"measurement": "Herbicidal rating ORYSAT (rice tolerance)", "setting": "[2]; Rate 0.0313 kg/ha, flooded paddy, post-transplant rice, rated 3 to 4 weeks after treatment", "value": 3.0}, {"measurement": "Herbicidal rating ORYSAT (rice tolerance)", "setting": "[2]; Rate 0.0625 kg/ha, flooded paddy, post-transplant rice, rated 3 to 4 weeks after treatment", "value": 4.0}, {"measurement": "Herbicidal rating ORYSAT (rice tolerance)", "setting": "[2]; Rate 0.1250 kg/ha, flooded paddy, post-transplant rice, rated 3 to 4 weeks after treatment", "value": 4.0}, {"measurement": "Herbicidal rating ORYSAT (rice tolerance)", "setting": "[2]; Rate 0.2500 kg/ha, flooded paddy, post-transplant rice, rated 3 to 4 weeks after treatment", "value": 5.0}, {"measurement": "ORYSAT herbicidal effect rating (rice tolerance)", "setting": "[3]; 0.0313 kg/ha", "value": 3.0}, {"measurement": "ORYSAT herbicidal effect rating (rice tolerance)", "setting": "[3]; 0.0625 kg/ha", "value": 4.0}, {"measurement": "ORYSAT herbicidal effect rating (rice tolerance)", "setting": "[3]; 0.1250 kg/ha", "value": 4.0}, {"measurement": "ORYSAT herbicidal effect rating (rice tolerance)", "setting": "[3]; 0.2500 kg/ha", "value": 5.0}, {"measurement": "CYPSE herbicidal effect rating", "setting": "[4]; 0.0313 kg/ha", "value": 0.0}, {"measurement": "CYPSE herbicidal effect rating", "setting": "[4]; 0.0625 kg/ha", "value": 0.0}, {"measurement": "CYPSE herbicidal effect rating", "setting": "[4]; 0.1250 kg/ha", "value": 3.0}, {"measurement": "CYPSE herbicidal effect rating", "setting": "[4]; 0.2500 kg/ha", "value": 9.0}, {"measurement": "ECHORC herbicidal effect rating", "setting": "[5]; 0.0313 kg/ha", "value": 5.0}, {"measurement": "ECHORC herbicidal effect rating", "setting": "[5]; 0.0625 kg/ha", "value": 6.0}, {"measurement": "ECHORC herbicidal effect rating", "setting": "[5]; 0.1250 kg/ha", "value": 9.0}, {"measurement": "ECHORC herbicidal effect rating", "setting": "[5]; 0.2500 kg/ha", "value": 9.0}, {"measurement": "Herbicidal rating MOOVA", "setting": "[6]; Rate 0.0313 kg/ha, rated 3 to 4 weeks after treatment", "value": 9.0}, {"measurement": "Herbicidal rating MOOVA", "setting": "[6]; Rate 0.0625 kg/ha, rated 3 to 4 weeks after treatment", "value": 9.0}, {"measurement": "Herbicidal rating MOOVA", "setting": "[6]; Rate 0.1250 kg/ha, rated 3 to 4 weeks after treatment", "value": 9.0}, {"measurement": "Herbicidal rating MOOVA", "setting": "[6]; Rate 0.2500 kg/ha, rated 3 to 4 weeks after treatment", "value": 9.0}, {"measurement": "ECHCG herbicidal rating", "setting": "[7]; rate 0.0156 kg/ha", "value": 3.0}, {"measurement": "ECHCG herbicidal rating", "setting": "[7]; rate 0.0313 kg/ha", "value": 9.0}, {"measurement": "ECHCG herbicidal rating", "setting": "[7]; rate 0.0625 kg/ha", "value": 9.0}, {"measurement": "ECHCG herbicidal rating", "setting": "[7]; rate 0.1250 kg/ha", "value": 9.0}, {"measurement": "ORYSAT rating", "setting": "[8]; 0.0156 kg/ha", "value": 0.0}, {"measurement": "ORYSAT rating", "setting": "[8]; 0.0313 kg/ha", "value": 0.0}, {"measurement": "ORYSAT rating", "setting": "[8]; 0.0625 kg/ha", "value": 0.0}, {"measurement": "ORYSAT rating", "setting": "[8]; 0.1250 kg/ha", "value": 0.0}, {"measurement": "ORYSAT rating", "setting": "[8]; 0.2500 kg/ha", "value": 2.0}, {"measurement": "ORYSAT rating", "setting": "[8]; 0.5000 kg/ha", "value": 6.0}]}
{"molecule": "C[C@@H](C(=O)O)N1C(=O)CS/C1=N/c1cc(-n2c(=O)cc(C(F)(F)F)n(C)c2=O)c(F)cc1Cl", "note": "[Compound 51, 2-{{2-Chloro-5-[3,6-dihydro-3-methyl-2,6-dioxo-4-(trifluoromethyl)-1(2H)-pyrimidinyl]-4-fluoro-phenyl}imino}-α-methyl-4-oxo-3-thiazolidineacetic acid, L-]", "values": [{"measurement": "Preemergence herbicidal rating CHEAL", "setting": "[1]; rate 0.0156 kg/ha", "value": 3.0}, {"measurement": "Preemergence herbicidal rating CHEAL", "setting": "[1]; rate 0.0313 kg/ha", "value": 9.0}, {"measurement": "Preemergence herbicidal rating CHEAL", "setting": "[1]; rate 0.0625 kg/ha", "value": 9.0}, {"measurement": "Preemergence herbicidal rating CHEAL", "setting": "[1]; rate 0.1250 kg/ha", "value": 9.0}, {"measurement": "Preemergence herbicidal rating CHEAL", "setting": "[1]; rate 0.2500 kg/ha", "value": 9.0}, {"measurement": "Herbicidal rating ORYSAT (rice tolerance)", "setting": "[2]; in vivo", "value": 0.0}, {"measurement": "Herbicidal rating ORYSAT (rice tolerance)", "setting": "[3]; in vivo", "value": 0.0}, {"measurement": "Herbicidal rating CYPSE", "setting": "[4]; 0.0625 kg/ha", "value": 0.0}, {"measurement": "Herbicidal rating CYPSE", "setting": "[4]; 0.1250 kg/ha", "value": 0.0}, {"measurement": "Herbicidal rating CYPSE", "setting": "[4]; 0.2500 kg/ha", "value": 0.0}, {"measurement": "Herbicidal rating ECHORC", "setting": "[5]; 0.0625 kg/ha", "value": 0.0}, {"measurement": "Herbicidal rating ECHORC", "setting": "[5]; 0.1250 kg/ha", "value": 0.0}, {"measurement": "Herbicidal rating ECHORC", "setting": "[5]; 0.2500 kg/ha", "value": 0.0}, {"measurement": "Herbicidal rating MOOVA", "setting": "[6]; rate 0.0625 kg/ha, 3-4 weeks after treatment", "value": 3.0}, {"measurement": "Herbicidal rating MOOVA", "setting": "[6]; rate 0.1250 kg/ha, 3-4 weeks after treatment", "value": 4.0}, {"measurement": "Herbicidal rating MOOVA", "setting": "[6]; rate 0.2500 kg/ha, 3-4 weeks after treatment", "value": 4.0}, {"measurement": "Postemergence herbicidal rating ECHCG", "setting": "[7]; Rate 0.0158 kg/ha", "value": 4.0}, {"measurement": "Postemergence herbicidal rating ECHCG", "setting": "[7]; Rate 0.0315 kg/ha", "value": 5.0}, {"measurement": "Postemergence herbicidal rating ECHCG", "setting": "[7]; Rate 0.0630 kg/ha", "value": 9.0}, {"measurement": "Preemergence herbicidal rating ORYSAT", "setting": "[8]; rate 0.0156 kg/ha", "value": 0.0}, {"measurement": "Preemergence herbicidal rating ORYSAT", "setting": "[8]; rate 0.0313 kg/ha", "value": 1.0}, {"measurement": "Preemergence herbicidal rating ORYSAT", "setting": "[8]; rate 0.0625 kg/ha", "value": 1.0}, {"measurement": "Preemergence herbicidal rating ORYSAT", "setting": "[8]; rate 0.1250 kg/ha", "value": 1.0}, {"measurement": "Preemergence herbicidal rating ORYSAT", "setting": "[8]; rate 0.2500 kg/ha", "value": 7.0}]}
